Measured values: US20240358705A1, “COMPOSITIONS AND METHODS FOR TREATMENT OF CANCER” (Board of Supervisors of Louisiana State University and …, priority 2021, published 2024)

Key:
[1] = system: CD3 T cells; settings: activated CD3 T cells, 3 μM or 10 μM, 72 hours
Experimental: (§1) Lymph nodes and spleen were isolated from wild-type C57BL/6N mice. Tissue was mechanically dissociated with the back of a syringe plunger and passed through a 70 M filter. […] Treated cells were incubated at 37° C., 5% CO2 for the designed study duration.
Protein concentration was quantified using a BCA protein assay kit (Thermo #A53225). […] of protein diluted with 1×LDS sample buffer (Life Technologies #B0008) and 1×sample reducing agent (Life Technologies #B0009), were denatured at 95° C. for 5 minutes. Denatured T cell protein was resolved using a 10% Bolt Bis-Tris plus protein gel (Thermo #NW00102BOX) and denatured BM-MDSC protein was resolved using an 8% Bolt Bis-Tris plus protein gel (Thermo #NW00082BOX). Gels were transferred to a PVDF membrane (Invitrogen #IB401002) using a seven-minute P3 program on an Invitrogen iBlot dry transfer system. Membranes were then blocked for one hour using 5% nonfat dry milk in TBS-T, washed three times with TBS-T and probed with primary antibody diluted with 5% BSA in TBS-T overnight at 4° C. with gentle rocking. Primary antibody was removed, and membranes were washed three times with TBS-T followed by secondary antibody diluted in TBS-T at room temperature for one hour with gentle rocking. […] Secondary antibodies used were anti-mouse-HRP (Kindle Biosciences #R1005) and anti-rabbit-HRP (Kindle Biosciences #R1006). […]

[2] = system: CD8 T cells; test: CFSE labeling and T cell proliferation; type: cell-based, mouse; settings: 72 hours
Experimental: Lymph nodes and spleen were isolated from wild-type C57BL/6N mice. Tissue was mechanically dissociated with the back of a syringe plunger and passed through a […] filter. […] Treated cells were incubated at 37° C., 5% CO2 for the designed study duration. Isolated CD3 T cells were labeled with 1 μM CFDA SE (Thermo #V12883) for 15 minutes at 37° C. protected from light. […] Cells were pelleted, resuspended and plated in an antibody coated well with the indicated drug concentrations at time zero. Activated T cells were incubated at 37° C., 5% CO2 for 72 hours. After study duration, T cells were stained with anti-CD4, anti-CD8, anti-CD3 following the immune profiling by flow cytometry method and proliferation was measured by CFSE dilution.

[3] = system: CD3 T cells; test: Granzyme B and perforin immunoblot; type: cell-based, mouse; settings: for granzyme B protein production, increase compared to DMSO / granzyme B, Log2 fold change compared to DMSO / perforin production, increase compared to DMSO / perforin, Log2 fold change compared to DMSO: 72 hours
Experimental: as §1

[4] = system: BM-MDSCs; test: MDSC suppression assay; type: cell-based, mouse; settings: for percent proliferation of CD3 T cells co-cultured with treated BM-MDSCs: DMSO control 40.73%
Experimental: 24-well plates were coated with […] anti-mouse CD3e and anti-mouse CD28 resuspended in PBS for two hours at 37° C., 5% C02. PBS containing coating antibodies were then removed and 1×10^6 naïve CFSE CD3 T cells in 1 ml was added to each well. Treated BM-MDSCs were removed using a rubber policeman. […] Cells were harvested and stained following the immune profiling by flow cytometry method. MDSC suppressive capacity was measured by their ability to inhibit CD3 T cell proliferation measured by CFSE dilution.

[5] = system: CD8 T cells; test: CD8 T cell activation markers by flow cytometry; type: cell-based, mouse; settings: 72 hours
Experimental: as §1, with “duration. […] After staining, cells were pelleted, resuspended and run by a BD FACSymphony A3 flow cytometer.” for “duration.”

[6] = system: CD8 T cells; test: Quantitative PCR of glycolysis enzymes; type: cell-based, mouse; settings: 3 μM and 10 μM, 48 hours
Experimental: as §1

[7] = system: B16-OVA; test: In vivo adoptive cellular transfer, OT-I, B16-OVA tumor; set-up: species or system mouse
Experimental: C57BL/6N mice were injected with 3×10^5 B16-OVA or B16 subcutaneously in the right flank. Five days after injection, mice were administered 200 μg cyclophosphamide monohydrate (Sigma #C73971G) dissolved in PBS by intraperitoneal injection to induce minor lymphodepletion. 48 hours after lymphodepletion, mice were intravenously adoptively transferred 2.5×10^6 CD8 OT-I or CD8 […] pre-treated ex vivo following the in vitro T cell activation method. Tumor growth rates were determined by tumor volume measurement beginning on day four and continuing three times per week for the study duration. Tumor volumes were determined by the ellipsoid formula: [(Length×Width^2)/2]. At the end of study, tumors were either fixed in 10% formalin or dissociated into a single-cell suspension for flow cytometry. […] Cells were then counted, filtered through a 70 μm cell strainer, and 10×10^6 cells were aliquoted and stained following the immune profiling by flow cytometry method.

[8] = system: B16-OVA; test: In vivo therapeutic vaccination and tumor analysis; set-up: species or system mouse; settings: 30 mg/kg orally, with SIINFEKL in IFA vaccination and boosts
Experimental: C57BL/6N mice were injected with 3×10^5 B16-OVA subcutaneously in the right flank. Five days after injection, mice were administered 200 μg cyclophosphamide dissolved in PBS by intraperitoneal injection to induce minor lymphodepletion. 48 hours after lymphodepletion, mice were intravenously adoptively transferred 2.5×10^6 labeled CD8 OT-I T cells. […]. Tumor growth rates were determined by tumor volume measurement beginning on day four and continuing three times per week for the study duration. Tumor volumes were determined by the ellipsoid formula: [(Length×Width^2)/2].

[9] = interstitial pulmonary fibrosis; cited from earlier work
[10] = three separate models of NASH; cited from earlier work

O=c1nc(OC[C@@H]2COCCO2)cc2n1CCc1cc(C#CC3CC3)ccc1-2 [GLPG1205, 9-Cyclopropylethynyl-2-((S)-1-[1,4]dioxan-2-ylmethoxy)-6,7-dihydropyrimido[6,1-a]isoquinolin-4-one]
GPR84 expression [1]: did not significantly affect GPR84 expression
CD8 T cell proliferation, Log2 fold change compared DMSO control ([2]; 3 μM): 0.48 Log2 fold change
CD8 T cell proliferation, increase vs DMSO ([2]; 3 μM): 39.3%
CD8 T cell proliferation, Log2 fold change compared DMSO control ([2]; 10 μM): 0.78 Log2 fold change
CD8 T cell proliferation, increase vs DMSO ([2]; 10 μM): 71.7%
granzyme B protein production, increase compared to DMSO ([3]; 3 μM): 3.57 times
granzyme B, Log2 fold change compared to DMSO ([3]; 3 μM): 1.84 Log2 fold change
perforin production, increase compared to DMSO ([3]; 3 μM): 3.09 times
perforin, Log2 fold change compared to DMSO ([3]; 3 μM): 1.62 Log2 fold change
granzyme B protein production, increase compared to DMSO ([3]; 10 μM): 4.04 times
granzyme B, Log2 fold change compared to DMSO ([3]; 10 μM): 2.01 Log2 fold change
perforin production, increase compared to DMSO ([3]; 10 μM): 3.86 times
perforin, Log2 fold change compared to DMSO ([3]; 10 μM): 1.95 Log2 fold change
expression of Granzyme B and Perforin (western blot) ([3]; activated T cells, high doses (FIG. 5)): dramatically increases the expression of Granzyme B and perforin
percent proliferation of CD3 T cells co-cultured with treated BM-MDSCs ([4]; BM-MDSCs treated with 3 μM): 64.99%
percent proliferation of CD3 T cells co-cultured with treated BM-MDSCs ([4]; BM-MDSCs treated with 10 μM): 62.49%
T cell proliferation in mixed culture of MDSC and T cells ([4]; FIG. 6 Panel A): allows T cells to proliferate (multiply) better
CD25 expression, increase vs DMSO ([5]; 3 μM): 21%
CD69 expression, increase vs DMSO ([5]; 3 μM): 11.24%
CTLA-4, increase vs DMSO ([5]; 3 μM): 50.31%
LAG-3, increase vs DMSO ([5]; 3 μM): 11.72%
PD-1, increase vs DMSO ([5]; 3 μM): 10.02%
intracellular IFNγ, increase vs DMSO ([5]; 3 μM): 51.23%
CD25 expression, increase vs DMSO ([5]; 10 μM): 25.58%
CD69 expression, increase vs DMSO ([5]; 10 μM): 14.59%
CTLA-4, increase vs DMSO ([5]; 10 μM): 81.92%
LAG-3, increase vs DMSO ([5]; 10 μM): 13.15%
PD-1, increase vs DMSO ([5]; 10 μM): 13.91%
intracellular IFNγ, increase vs DMSO ([5]; 10 μM): 61.55%
gene expression of enzymes in glycolytic pathway compared to DMSO control [6]: significant dose-dependent increase
anti-tumor response (tumor volume) after adoptive transfer of pre-treated CD8 OT-I T cells ([7]; T cells pre-treated ex vivo with 10 μM, B16-OVA tumor bearing mice, vs sham and DMSO pre-treated): significantly enhanced this anti-tumor effect
intratumoral CD8 T cells positive for SIINFEKL tetramer ([7]; T cells pre-treated with 10 μM, sham 20%, DMSO pre-treated 27.6%): 53.7%
anti-tumor response (tumor growth rates) compared to the MC control group [8]: significantly stronger anti-tumor response
fibrosis, over the standard of care [9]: non-significant reduction in fibrosis
macrophage accumulation [10]: significant decrease in macrophage accumulation
